# Test system: MV-4-11 cells
# Experiment: Gene expression microarray analysis (Affymetrix PrimeView) and GSEA
# Format: cell-based, human
# Parameters: RFU PODN (11730768_x_at) / Fold change /veh PODN (11730768_x_at) / RFU LINC00158 (11744669_a_at) / Fold change /veh LINC00158 (11744669_a_at) / RFU DUSP10 (11751237_a_at) / Fold change /veh DUSP10 (11751237_a_at) / RFU ID3 (11757404_x_at) / Fold change /veh ID3 (11757404_x_at) / RFU PLEKHG5 (11737974_s_at) / Fold change /veh PLEKHG5 (11737974_s_at) / RFU LRRC4B (11730491_at) / Fold change /veh LRRC4B (11730491_at) / RFU GIMAP4 (11747438_a_at) / Fold change /veh GIMAP4 (11747438_a_at) / RFU KRT8 (11758183_x_at) / Fold change /veh KRT8 (11758183_x_at) / RFU CNN1 (11734310_a_at) / Fold change /veh CNN1 (11734310_a_at) / RFU VPS37D (11726825_at) / Fold change /veh VPS37D (11726825_at) / RFU C10orf10 (11716522_x_at) / Fold change /veh C10orf10 (11716522_x_at) / RFU KIR2DL2 /// KIR2DL4 /// KIR2DL5A /// KIR2DL5B /// KIR2DS1 /// KIR2DS2 /// KIR2DS3 /// KIR2DS4 /// KIR3DL3 /// KIR3DL3 /// KIR3DS1 (11738374_at) / Fold change /veh KIR2DL2 /// KIR2DL4 /// KIR2DL5A /// KIR2DL5B /// KIR2DS1 /// KIR2DS2 /// KIR2DS3 /// KIR2DS4 /// KIR3DL3 /// KIR3DL3 /// KIR3DS1 (11738374_at) / RFU C1QL1 (11718748_at) / Fold change /veh C1QL1 (11718748_at) / RFU TMPRSS4 (11747572_a_at) / Fold change /veh TMPRSS4 (11747572_a_at) / RFU HAMP (11756126_x_at) / Fold change /veh HAMP (11756126_x_at) / RFU RNFT2 (11725882_a_at) / Fold change /veh RNFT2 (11725882_a_at) / RFU NR4A2 (11747474_a_at) / Fold change /veh NR4A2 (11747474_a_at) / RFU ABCC12 (11746883_a_at) / Fold change /veh ABCC12 (11746883_a_at) / RFU TMEM136 (11760407_x_at) / Fold change /veh TMEM136 (11760407_x_at) / RFU CLDN22 /// WWC2 (11732394_at) / Fold change /veh CLDN22 /// WWC2 (11732394_at) / RFU HLA-DPB1 (11760878_x_at) / Fold change /veh HLA-DPB1 (11760878_x_at) / RFU SPINT1 (11716480_a_at) / Fold change /veh SPINT1 (11716480_a_at) / RFU GAP43 (11754022_s_at) / Fold change /veh GAP43 (11754022_s_at) / RFU A4GNT (11735810_at) / Fold change /veh A4GNT (11735810_at) / RFU PRB3 (11715151_x_at) / Fold change /veh PRB3 (11715151_x_at) / RFU TUBB4B (11761932_at) / Fold change /veh TUBB4B (11761932_at) / RFU CAPN14 (11732068_a_at) / Fold change /veh CAPN14 (11732068_a_at) / RFU TMCC2 (11721928_a_at) / Fold change /veh TMCC2 (11721928_a_at) / RFU IRGQ (11745062_a_at) / Fold change /veh IRGQ (11745062_a_at) / RFU FAM174B (11720279_a_at) / Fold change /veh FAM174B (11720279_a_at) / RFU TMPRSS4 (11748680_a_at) / Fold change /veh TMPRSS4 (11748680_a_at) / RFU FAM212B (11763350_a_at) / Fold change /veh FAM212B (11763350_a_at) / RFU PLEKHG5 (11743358_a_at) / Fold change /veh PLEKHG5 (11743358_a_at) / RFU ZSCAN30 (11745921_a_at) / Fold change /veh ZSCAN30 (11745921_a_at) / RFU CMKLR1 (11741424_a_at) / Fold change /veh CMKLR1 (11741424_a_at) / RFU LOC101060620 /// MAPK8IP1 (11723275_at) / Fold change /veh LOC101060620 /// MAPK8IP1 (11723275_at) / RFU SPTSSB (11747773_x_at) / Fold change /veh SPTSSB (11747773_x_at) / RFU PRSS12 (11739890_at) / Fold change /veh PRSS12 (11739890_at) / RFU BIN1 (11741810_x_at) / Fold change /veh BIN1 (11741810_x_at) / RFU WNT11 (11732464_a_at) / Fold change /veh WNT11 (11732464_a_at) / RFU C10orf10 (11716521_a_at) / Fold change /veh C10orf10 (11716521_a_at) / RFU C5orf56 (11738089_at) / Fold change /veh C5orf56 (11738089_at) / RFU CYB561 (11721691_x_at) / Fold change /veh CYB561 (11721691_x_at) / RFU ANKRD19P (11752326_a_at) / Fold change /veh ANKRD19P (11752326_a_at) / RFU OR2T12 /// OR2T33 /// OR2T8 (11738714_s_at) / Fold change /veh OR2T12 /// OR2T33 /// OR2T8 (11738714_s_at) / RFU VCAN (11748164_a_at) / Fold change /veh VCAN (11748164_a_at) / RFU JSRP1 (11732532_at) / Fold change /veh JSRP1 (11732532_at) / RFU KRTAP10-11 (11738290_x_at) / Fold change /veh KRTAP10-11 (11738290_x_at) / RFU MYO3A (11730013_a_at) / Fold change /veh MYO3A (11730013_a_at) / RFU EBF3 (11725865_a_at) / Fold change /veh EBF3 (11725865_a_at) / RFU CAMK2N1 (11719241_x_at) / Fold change /veh CAMK2N1 (11719241_x_at) / RFU C5orf56 (11738088_a_at) / Fold change /veh C5orf56 (11738088_a_at) / RFU OLFML3 (11715873_a_at) / Fold change /veh OLFML3 (11715873_a_at) / RFU LOC100653217 /// NTM (11731650_a_at) / Fold change /veh LOC100653217 /// NTM (11731650_a_at) / RFU MAPK11 (11762145_a_at) / Fold change /veh MAPK11 (11762145_a_at) / RFU FIZ1 (11724087_x_at) / Fold change /veh FIZ1 (11724087_x_at) / RFU OASL (11726364_x_at) / Fold change /veh OASL (11726364_x_at) / RFU SOX15 (11748057_x_at) / Fold change /veh SOX15 (11748057_x_at) / RFU CD79A (11719716_a_at) / Fold change /veh CD79A (11719716_a_at) / RFU HIST1H1D (11736915_at) / Fold change /veh HIST1H1D (11736915_at) / RFU CASKIN2 (11723855_a_at) / Fold change /veh CASKIN2 (11723855_a_at) / RFU LOC730098 (11760151_x_at) / Fold change /veh LOC730098 (11760151_x_at) / RFU OR4N2 (11742367_at) / Fold change /veh OR4N2 (11742367_at) / RFU PRRT2 (11749266_a_at) / Fold change /veh PRRT2 (11749266_a_at) / RFU SNX32 (11753110_a_at) / Fold change /veh SNX32 (11753110_a_at) / RFU CDHR5 (11726645_a_at) / Fold change /veh CDHR5 (11726645_a_at) / RFU RCAN1 (11760418_a_at) / Fold change /veh RCAN1 (11760418_a_at) / RFU FAM167A (11723789_a_at) / Fold change /veh FAM167A (11723789_a_at) / RFU FAM26E (11764081_at) / Fold change /veh FAM26E (11764081_at) / RFU ISYNA1 (11749810_s_at) / Fold change /veh ISYNA1 (11749810_s_at) / RFU ACY1 (11761880_at) / Fold change /veh ACY1 (11761880_at) / RFU 11764098_at / Fold change /veh 11764098_at / RFU SAMD14 (11745864_x_at) / Fold change /veh SAMD14 (11745864_x_at) / RFU NPB (11741838_a_at) / Fold change /veh NPB (11741838_a_at) / RFU TMPRSS6 (11731388_a_at) / Fold change /veh TMPRSS6 (11731388_a_at) / RFU KRTAP10-2 (11738614_at) / Fold change /veh KRTAP10-2 (11738614_at) / RFU ARHGAP8 /// PRR5-ARHGAP8 (11727945_x_at) / Fold change /veh ARHGAP8 /// PRR5-ARHGAP8 (11727945_x_at) / RFU KRTAP5-7 /// NADSYN1 (11734609_at) / Fold change /veh KRTAP5-7 /// NADSYN1 (11734609_at) / RFU RASL12 (11751679_a_at) / Fold change /veh RASL12 (11751679_a_at) / RFU CDKN2B (11736163_a_at) / Fold change /veh CDKN2B (11736163_a_at) / RFU PRF1 (11729649_at) / Fold change /veh PRF1 (11729649_at) / RFU, ZNF638 /// ZNF638-IT1 / Fold change vs veh, ZNF638 /// ZNF638-IT1 / RFU, PANK3 / Fold change vs veh, PANK3 / RFU, SH3YL1 / Fold change vs veh, SH3YL1 / RFU, ZEB2 / Fold change vs veh, ZEB2 / RFU, NRIP1 / Fold change vs veh, NRIP1 / RFU, PTTG1IP / Fold change vs veh, PTTG1IP / RFU, CAPN2 / Fold change vs veh, CAPN2 / RFU, MED14 / Fold change vs veh, MED14 / RFU, SNORA58 / Fold change vs veh, SNORA58 / RFU, C1orf63 / Fold change vs veh, C1orf63 / RFU, LRRFIP1 / Fold change vs veh, LRRFIP1 / RFU, NDUFAF7 / Fold change vs veh, NDUFAF7 / RFU, SLC12A2 / Fold change vs veh, SLC12A2 / RFU, IBTK / Fold change vs veh, IBTK / RFU, ESF1 / Fold change vs veh, ESF1 / Fold change vs veh, TMEM50B / RFU, TAOK1 / Fold change vs veh, TAOK1 / RFU, ACBD3 / Fold change vs veh, ACBD3 / RFU, TMA16 / Fold change vs veh, TMA16 / RFU, RWDD3 / Fold change vs veh, RWDD3 / RFU, BCAT1 / Fold change vs veh, BCAT1 / RFU, EDEM3 / Fold change vs veh, EDEM3 / RFU, TMEM33 / Fold change vs veh, TMEM33 / RFU, WDR75 / Fold change vs veh, WDR75 / RFU, AHCTF1 / Fold change vs veh, AHCTF1 / RFU, TFRC / Fold change vs veh, TFRC / RFU, ZDHHC17 / Fold change vs veh, ZDHHC17 / RFU, NOM1 / Fold change vs veh, NOM1 / RFU, ARL8B / Fold change vs veh, ARL8B / RFU, ZBTB11 / Fold change vs veh, ZBTB11 / RFU, TAMM41 / Fold change vs veh, TAMM41 / RFU, KIAA1704 /// LOC100996395 / Fold change vs veh, KIAA1704 /// LOC100996395 / RFU, ING1 / Fold change vs veh, ING1 / RFU, TRMT61B / Fold change vs veh, TRMT61B / RFU, FUBP3 / Fold change vs veh, FUBP3 / RFU, TP53 / Fold change vs veh, TP53 / RFU, TNKS2 / Fold change vs veh, TNKS2 / RFU, ZFP14 / Fold change vs veh, ZFP14 / RFU, ACTR2 / Fold change vs veh, ACTR2 / RFU, PPP3R1 / Fold change vs veh, PPP3R1 / RFU, PIK3R1 / Fold change vs veh, PIK3R1 / RFU, HNRNPA1 / Fold change vs veh, HNRNPA1 / RFU, RNF170 / Fold change vs veh, RNF170 / RFU, ZNF28 / Fold change vs veh, ZNF28 / RFU, RNGTT / Fold change vs veh, RNGTT / RFU, OGT / Fold change vs veh, OGT / RFU, BRD1 / Fold change vs veh, BRD1 / RFU, MARS / Fold change vs veh, MARS / RFU, ZNF655 / Fold change vs veh, ZNF655 / RFU, FAHD1 / Fold change vs veh, FAHD1 / RFU, BDP1 / Fold change vs veh, BDP1 / RFU, LRRCC1 / Fold change vs veh, LRRCC1 / RFU, ARID1A / Fold change vs veh, ARID1A / RFU, ZNF146 / Fold change vs veh, ZNF146 / RFU, ZNF330 / Fold change vs veh, ZNF330 / RFU, GPN3 / Fold change vs veh, GPN3 / RFU, C9orf123 / Fold change vs veh, C9orf123 / RFU, N4BP2L2 / Fold change vs veh, N4BP2L2 / RFU, ARFIP1 / Fold change vs veh, ARFIP1 / RFU, FAM179B / Fold change vs veh, FAM179B / RFU, BCL10 / Fold change vs veh, BCL10 / RFU, UHRF1BP1L / Fold change vs veh, UHRF1BP1L / RFU, BET1 / Fold change vs veh, BET1 / RFU, CNOT2 / Fold change vs veh, CNOT2 / RFU, ZNF268 / Fold change vs veh, ZNF268 / Fold change vs veh, ZNF507 / RFU, DGCR2 / Fold change vs veh, DGCR2 / RFU, WDSUB1 / Fold change vs veh, WDSUB1 / Fold change vs veh, HSP90B1 /// MIR3652 / RFU, ADSS / Fold change vs veh, ADSS / RFU, GK / Fold change vs veh, GK / RFU, ZNF148 / Fold change vs veh, ZNF148 / RFU, TAF9 / Fold change vs veh, TAF9 / RFU, SLC1A5 / Fold change vs veh, SLC1A5 / RFU, SLMO2 / Fold change vs veh, SLMO2 / RFU, ABCC4 / Fold change vs veh, ABCC4 / RFU, LOC101060439 /// RAP1B / Fold change vs veh, LOC101060439 /// RAP1B / RFU, RFX7 / Fold change vs veh, RFX7 / RFU, GTPBP10 / Fold change vs veh, GTPBP10 / RFU, CNEP1R1 / Fold change vs veh, CNEP1R1 / RFU, BIVM-ERCC5 /// ERCC5 / Fold change vs veh, BIVM-ERCC5 /// ERCC5 / RFU, ILF3 / Fold change vs veh, ILF3 / RFU 11762660_at / Fold change /veh 11762660_at / RFU VCAN (11757783_s_at) / Fold change /veh VCAN (11757783_s_at) / RFU DDX43 (11728927_at) / Fold change /veh DDX43 (11728927_at) / RFU KRT8 (11758188_x_at) / Fold change /veh KRT8 (11758188_x_at) / RFU NKD1 (11759106_at) / Fold change /veh NKD1 (11759106_at) / RFU SRD5A1 (11742802_a_at) / Fold change /veh SRD5A1 (11742802_a_at) / RFU TPSAB1 /// TPSB2 (11721975_s_at) / Fold change /veh TPSAB1 /// TPSB2 (11721975_s_at) / RFU GSTM3 (11746129_a_at) / Fold change /veh GSTM3 (11746129_a_at) / RFU IL23R (11737362_x_at) / Fold change /veh IL23R (11737362_x_at) / RFU TMEM51 (11727254_a_at) / Fold change /veh TMEM51 (11727254_a_at) / RFU PIWIL2 (11732686_x_at) / Fold change /veh PIWIL2 (11732686_x_at) / RFU ORM1 (11744905_x_at) / Fold change /veh ORM1 (11744905_x_at) / RFU CCDC152 (11743942_at) / Fold change /veh CCDC152 (11743942_at) / RFU ECM1 (11717891_a_at) / Fold change /veh ECM1 (11717891_a_at) / RFU IL23R (11748794_a_at) / Fold change /veh IL23R (11748794_a_at) / RFU TNFAIP8L3 (11732012_x_at) / Fold change /veh TNFAIP8L3 (11732012_x_at) / RFU MBOAT4 (11741988_at) / Fold change /veh MBOAT4 (11741988_at) / RFU 11764193_at / Fold change /veh 11764193_at / RFU TMEM53 (11763286_at) / Fold change /veh TMEM53 (11763286_at) / RFU MAGEB2 (11727129_at) / Fold change /veh MAGEB2 (11727129_at) / RFU TMEM200A (11744735_a_at) / Fold change /veh TMEM200A (11744735_a_at) / RFU CCDC152 (11751479_a_at) / Fold change /veh CCDC152 (11751479_a_at) / RFU FAM211A (11726209_a_at) / Fold change /veh FAM211A (11726209_a_at) / RFU RGS16 (11746705_a_at) / Fold change /veh RGS16 (11746705_a_at) / RFU VCAN (11755009_s_at) / Fold change /veh VCAN (11755009_s_at) / RFU RHOB (11743442_s_at) / Fold change /veh RHOB (11743442_s_at) / RFU RGS16 (11720943_a_at) / Fold change /veh RGS16 (11720943_a_at) / RFU RGS16 (11720944_at) / Fold change /veh RGS16 (11720944_at) / RFU, VPS4B / Fold change vs veh, VPS4B / RFU, CREB1 / Fold change vs veh, CREB1 / RFU, DNAJC13 / Fold change vs veh, DNAJC13 / RFU, GNAQ / Fold change vs veh, GNAQ / RFU, CDK5R1 / Fold change vs veh, CDK5R1 / RFU, ZRANB3 / Fold change vs veh, ZRANB3 / RFU, CUL4A / Fold change vs veh, CUL4A / RFU, CCNY / Fold change vs veh, CCNY / RFU, UFL1 / Fold change vs veh, UFL1 / RFU, COG3 / Fold change vs veh, COG3 / RFU, DIAPH2 / Fold change vs veh, DIAPH2 / RFU, SKA2 / Fold change vs veh, SKA2 / RFU, AFF3 / Fold change vs veh, AFF3 / RFU, LMF1 / Fold change vs veh, LMF1 / RFU, IPO11 / Fold change vs veh, IPO11 / RFU, DFFB / Fold change vs veh, DFFB / RFU, FOXP1 / Fold change vs veh, FOXP1 / RFU, CARD8 / Fold change vs veh, CARD8 / RFU, STRN3 / Fold change vs veh, STRN3 / RFU, ADK / Fold change vs veh, ADK / RFU, RASSF2 / Fold change vs veh, RASSF2 / RFU, WIPF1 / Fold change vs veh, WIPF1 / RFU, LARP1B / Fold change vs veh, LARP1B / RFU, RASA1 / Fold change vs veh, RASA1 / RFU, RB1 / Fold change vs veh, RB1 / RFU, PPFIA1 / Fold change vs veh, PPFIA1 / RFU, MAT2A / Fold change vs veh, MAT2A / RFU, CCT5 / Fold change vs veh, CCT5 / RFU, WDR92 / Fold change vs veh, WDR92 / RFU, CUX1 / Fold change vs veh, CUX1 / RFU, TTC7A / Fold change vs veh, TTC7A / RFU, TMEM135 / Fold change vs veh, TMEM135 / RFU, DEPTOR / Fold change vs veh, DEPTOR / RFU, CPM / Fold change vs veh, CPM / RFU, DNAJB6 / Fold change vs veh, DNAJB6 / RFU, CACNA2D3 / Fold change vs veh, CACNA2D3 / RFU, DTX4 / Fold change vs veh, DTX4 / RFU, TFCP2 / Fold change vs veh, TFCP2 / RFU, GMCL1 /// GMCL1P1 / Fold change vs veh, GMCL1 /// GMCL1P1 / RFU, AEBP2 / Fold change vs veh, AEBP2 / RFU, SNHG1 /// SNORD22 /// SNORD25 /// SNORD26 /// SNORD27 /// SNORD28 /// SNORD29 /// SNORD31 / Fold change vs veh, SNHG1 /// SNORD22 /// SNORD25 /// SNORD26 /// SNORD27 /// SNORD28 /// SNORD29 /// SNORD31 / Fold change (Aza/veh), C12orf56 (ProbeSet 11735607_a_at) / Fold change (ACY-1035/veh), C12orf56 (ProbeSet 11735607_a_at) / Fold change (Aza/veh), FGFR1OP (ProbeSet 11751329_s_at) / Fold change (ACY-1035/veh), FGFR1OP (ProbeSet 11751329_s_at) / Fold change (Aza/veh), VPS36 (ProbeSet 11739960_a_at) / Fold change (ACY-1035/veh), VPS36 (ProbeSet 11739960_a_at) / RFU SYPL1 (11715823_x_at) / Fold change /veh SYPL1 (11715823_x_at) / RFU IGFBP7 (11715501_s_at) / Fold change /veh IGFBP7 (11715501_s_at) / RFU REEP3 (11722064_at) / Fold change /veh REEP3 (11722064_at) / RFU IGLL1 (11728026_x_at) / Fold change /veh IGLL1 (11728026_x_at): dose or concentration left out as unconfirmed
# Conditions: ProbeSet 11723930_at; LIST D
smiles,measurement,value
Nc1ncn([C@@H]2O[C@H](CO)[C@@H](O)[C@H]2O)c(=O)n1 [azacitidine],"Fold change vs veh, CCT5",0.69
